Measurements from patent US5190741A, “Agents for diagnosing and treating melanomas, aromatic halogenated derivatives usable as such agents and their preparation” (Institut National de la Sante et de la Recherche Medicale …, priority 1989, dated 1993).

Key:
[1] = LD50 determination, i.v. (Karber and Behrens); settings: mouse, in vivo, iv
Source text: (§1) The determination of the LD50 is made in the mouse after i.v. injection of the molecules according to the methodology described by Karber and Behrens.
(§2) 6 weeks old male nu/nu SSCUP nude mice, […]

[2] = system: 6 weeks old male nu/nu SSCUP nude mice; assay: LD50 determination, i.v. (Karber and Behrens); settings: mouse, in vivo, iv
Source text: as §1, §2

[3] = LD50 determination, i.v. (Karber and Behrens); settings: mouse, in vivo, iv; remark: listed apart in the source
Source text: as §1
(§3) male nu/nu SSCUP nude mice bearing heterotransplants of human melanomas.

[4] = system: male nu/nu SSCUP nude mice bearing heterotransplants (Beu melanoma); assay: LD50 determination, i.v. (Karber and Behrens); settings: mouse, in vivo, iv
Source text: as §1, §3

[5] = system: EMT6 tumor (spontaneous mammary carcinoma of mice); assay: Scintillation imaging (specificity), BALB mice; assay type: in vivo, mouse
Source text: The mice bearing grafted tumors are anesthetized by the i.p. injection of sodium pentobarbital 1/5 and immobilized under a scintillation camera (Gammatome II, CGR) equipped with a pinhole 3-360 collimator, sensitivity 3.2 10^-4.

[6] = system: pulmonary colonies of B16 melanoma; assay: Autoradiograms, pulmonary metastasing colonies after i.v. B16 cells; assay type: in vivo, mouse; settings: 1 to 7 hours after injection
Description: The autoradiograms are carried out in mice bearing grafted melanomas:
The animals bearing grafted tumors receive the labelled compounds in the form of the hydrochloride in saline solution (3.7 to 5×10^5 Bq/animal) in a caudal vein. At different time intervals after the administration of the compounds (from 15 minutes to 24 hours) the mice are anesthetized with ether and plunged into liquid nitrogen.
30 μm sections, parallel to a sagittal plane, are prepared in a freezing microtome (TS 260, SLEE) according to the protocol described by Ullberg. The sections, dehydrated in the cold, are applied to sensitive films, Ultrofim ^3 H (LKB, 2208-190) or Hyperfilm ^3 H (Amersham, RPN 535).
After the i.v. injection of B16 melanoma cells the appearance of predominantly pulmonary metastasing colonies is noticed.

[7] = system: Dau amelanic human melanoma; assay: Tissue distribution in Swiss nu/nu SSCUP mice bearing Dau; assay type: in vivo
Description: The study of the tissue distribution of the ^125 I labelled compounds was performed in mice bearing grafted melanomas (cf. autoradiograms above). […] The animals are sacrificed at different time intervals of 1 to 24 hours after the injection. The blood is collected and the principal organs are excised. Aliquots are weighed and the radioactivity of the samples is measured in a […] 1191 counter (analytic tracer). The counting yield for iodine 125 is 60%. The results are expressed: as a percentage of the injected dose bound per g of tissue (% ID/g); in the form of the ratios [formula] This ratio reflects more precisely the selectivity of a molecule for an organ (tables 2, 4, 6, 8, 10 and 12).

In the case of `CCN(CC)CCNC(=O)c1ccc(I)cc1` [Derivative A, N-(2-diethylaminoethyl) 4-iodo benzamide], the LD50 [1] was 90 mg/kg, the “LD 0” value [2] was 60 mg/kg and the “LD 100” value [2] was 150 mg/kg. For the same molecule, the LD50 [3] was 90 mg/kg, the “LD 0” value [4] was 60 mg/kg and the “LD 100” value [4] was 150 mg/kg. The tumor image ([5]; ^123 I label) was “absence of images” and the tumor image ([5]; after injection of A) was “not obtained any image”.
With `CCNCCNC(=O)c1ccc(I)cc1` [Derivative B, N-(2-ethylaminoethyl) 4-iodo benzamide] the “visualization of pulmonary colonies” value [6] was “readily visualized”, the “intratumoral concentrations compared with A” value ([7]; 4 to 6 h, Dau) was “slightly higher” and the brain/blood ratio ([7]; 1 h) was 1,44 ± 0,069. The eye/blood ratio ([7]; 1 h) was 0,57 ± 0,011, the intestine/blood ratio ([7]; 1 h) was 3,44 ± 0,231 and the kidney/blood ratio ([7]; 1 h) was 9,10 ± 0,286. For the same molecule, the liver/blood ratio ([7]; 1 h) was 5,56 ± 0,225, the lungs/blood ratio ([7]; 1 h) was 6 ± 0,353 and the muscle/blood ratio ([7]; 1 h) was 1,17 ± 0,040. The pancreas/blood ratio ([7]; 1 h) was 3,20 ± 0,099, the plasma/blood ratio ([7]; 1 h) was 0,80 ± 0,017 and the spleen/blood ratio ([7]; 1 h) was 2,84 ± 0,091. The stomach/blood ratio ([7]; 1 h) was 2,66 ± 0,101, the submaxillary glands/blood ratio ([7]; 1 h) was 4,82 ± 0,285 and the tumor/blood ratio ([7]; 1 h) was 1,33 ± 0,015. For the same molecule, the brain/blood ratio ([7]; 2 h) was 1,43 ± 0,261, the eye/blood ratio ([7]; 2 h) was 0,55 ± 0,052 and the intestine/blood ratio ([7]; 2 h) was 2,87 ± 0,34. The kidney/blood ratio ([7]; 2 h) was 7,00 ± 1,03, the liver/blood ratio ([7]; 2 h) was 3,62 ± 0,68 and the lungs/blood ratio ([7]; 2 h) was 6,33 ± 1,166. The muscle/blood ratio ([7]; 2 h) was 0,98 ± 0,182, the pancreas/blood ratio ([7]; 2 h) was 2,42 ± 0,36 and the plasma/blood ratio ([7]; 2 h) was 0,89 ± 0,068. The spleen/blood ratio ([7]; 2 h) was 2,31 ± 0,36, the stomach/blood ratio ([7]; 2 h) was 3,40 ± 0,694 and the submaxillary glands/blood ratio ([7]; 2 h) was 4,48 ± 0,220. The tumor/blood ratio ([7]; 2 h) was 1,39 ± 0,103, the brain/blood ratio ([7]; 4 h) was 2,21 ± 0,304 and the eye/blood ratio ([7]; 4 h) was 0,71 ± 0,056. The intestine/blood ratio ([7]; 4 h) was 4,08 ± 0,599, the kidney/blood ratio ([7]; 4 h) was 8,03 ± 0,813 and the liver/blood ratio ([7]; 4 h) was 5,21 ± 0,519. The lungs/blood ratio ([7]; 4 h) was 8,77 ± 0,838, the muscle/blood ratio ([7]; 4 h) was 1,24 ± 0,153 and the pancreas/blood ratio ([7]; 4 h) was 2,70 ± 0,300. For the same molecule, the plasma/blood ratio ([7]; 4 h) was 0,94 ± 0,058, the spleen/blood ratio ([7]; 4 h) was 2,07 ± 0,256 and the stomach/blood ratio ([7]; 4 h) was 4,34 ± 0,924. For the same molecule, the submaxillary glands/blood ratio ([7]; 4 h) was 5,44 ± 0,297, the tumor/blood ratio ([7]; 4 h) was 2,68 ± 0,757 and the brain/blood ratio ([7]; 6 h) was 0,44 ± 0,060. For the same molecule, the eye/blood ratio ([7]; 6 h) was 0,36 ± 0,023, the intestine/blood ratio ([7]; 6 h) was 1,97 ± 0,112 and the kidney/blood ratio ([7]; 6 h) was 2,01 ± 0,252. The liver/blood ratio ([7]; 6 h) was 1,43 ± 0,439, the lungs/blood ratio ([7]; 6 h) was 1,82 ± 0,187 and the muscle/blood ratio ([7]; 6 h) was 0,24 ± 0,056. For the same molecule, the pancreas/blood ratio ([7]; 6 h) was 0,76 ± 0,050, the plasma/blood ratio ([7]; 6 h) was 1,16 ± 0,016 and the spleen/blood ratio ([7]; 6 h) was 0,62 ± 0,045. For the same molecule, the stomach/blood ratio ([7]; 6 h) was 3,78 ± 0,400, the submaxillary glands/blood ratio ([7]; 6 h) was 5,16 ± 0,853 and the tumor/blood ratio ([7]; 6 h) was 0,65 ± 0,025. The brain/blood ratio ([7]; 8 h) was 1,31 ± 0,180, the eye/blood ratio ([7]; 8 h) was 0,60 ± 0,040 and the intestine/blood ratio ([7]; 8 h) was 3,30 ± 0,269. For the same molecule, the kidney/blood ratio ([7]; 8 h) was 3,72 ± 0,573, the liver/blood ratio ([7]; 8 h) was 6,03 ± 0,678 and the lungs/blood ratio ([7]; 8 h) was 3,69 ± 0,585. The muscle/blood ratio ([7]; 8 h) was 0,74 ± 0,216, the pancreas/blood ratio ([7]; 8 h) was 1,22 ± 0,151 and the plasma/blood ratio ([7]; 8 h) was 0,19 ± 0,020. For the same molecule, the spleen/blood ratio ([7]; 8 h) was 1,28 ± 0,158, the stomach/blood ratio ([7]; 8 h) was 5,35 ± 0,355 and the submaxillary glands/blood ratio ([7]; 8 h) was 3,65 ± 0,266. The tumor/blood ratio ([7]; 8 h) was 1,17 ± 0,314, the brain/blood ratio ([7]; 12 h) was 0,74 ± 0,072 and the eye/blood ratio ([7]; 12 h) was 0,88 ± 0,081. For the same molecule, the intestine/blood ratio ([7]; 12 h) was 3,20 ± 0,502, the kidney/blood ratio ([7]; 12 h) was 5,46 ± 0,217 and the liver/blood ratio ([7]; 12 h) was 13,34 ± 0,462. For the same molecule, the lungs/blood ratio ([7]; 12 h) was 3,04 ± 0,401, the muscle/blood ratio ([7]; 12 h) was 0,45 ± 0,111 and the pancreas/blood ratio ([7]; 12 h) was 5 ± 0,310. For the same molecule, the plasma/blood ratio ([7]; 12 h) was 0,16 ± 0,037, the spleen/blood ratio ([7]; 12 h) was 3,68 ± 0,493 and the stomach/blood ratio ([7]; 12 h) was 7,03 ± 0,728. For the same molecule, the submaxillary glands/blood ratio ([7]; 12 h) was 2,52 ± 0,236, the tumor/blood ratio ([7]; 12 h) was 1,11 ± 0,059 and the brain/blood ratio ([7]; 24 h) was 0,22 ± 0,029. The eye/blood ratio ([7]; 24 h) was 0,94 ± 0,213, the intestine/blood ratio ([7]; 24 h) was 1,16 ± 0,141 and the kidney/blood ratio ([7]; 24 h) was 4,64 ± 0,328. The liver/blood ratio ([7]; 24 h) was 21,88 ± 1,493, the lungs/blood ratio ([7]; 24 h) was 1,72 ± 0,182 and the muscle/blood ratio ([7]; 24 h) was 0,27 ± 0,043. The pancreas/blood ratio ([7]; 24 h) was 1,40 ± 0,120, the plasma/blood ratio ([7]; 24 h) was 1,07 ± 0,154 and the spleen/blood ratio ([7]; 24 h) was 11,17 ± 1,75. For the same molecule, the stomach/blood ratio ([7]; 24 h) was 2,28 ± 0,165, the submaxillary glands/blood ratio ([7]; 24 h) was 1,81 ± 0,169 and the tumor/blood ratio ([7]; 24 h) was 0,79 ± 0,092. The “tumor/blood ratios compared with A” value ([7]; Dau) was “not significantly different”.
